These results are taken from PubChem BioAssay (NCI).

Test systems include A498 renal; CCRF-CEM leukemia; HL-60(TB) leukemia; HOP-92 NSCLC; LOX IMVI melanoma; M14 melanoma; NCI-H226 lung; OVCAR-3 ovarian; OVCAR-8 ovarian; RPMI-8226 leukemia; RXF 393 renal; SK-OV-3 ovarian; SN12C renal; SNB-19 CNS; UACC-257 melanoma; MDA-MB-231 breast; NCI/ADR-RES ovarian; PC-3 prostate; MDA-N; T-47D breast.
Experiment in all cases: NCI tumour cell line growth inhibition, 48 h

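96-well plates; 48 h exposure; 5 concentrations. Endpoints by linear interpolation between flanking doses. Not reached: highest tested concentration assigned. TGI is the concentration that stops growth completely.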

In the case of `C#CCCCCC#Cc1ccccc1C(=O)OC`, the TGI is over 100 µM with A498 renal; 32.4 µM in the assay with CCRF-CEM leukemia; 29.4 µM in the assay on HL-60(TB) leukemia; 86 µM with HOP-92 NSCLC; 33.1 µM with LOX IMVI melanoma; over 100 µM in the assay with M14 melanoma. Also, the TGI in the assay on NCI-H226 lung was over 100 µM; in the assay on OVCAR-3 ovarian, over 100 µM; with OVCAR-8 ovarian it was 31.5 µM; with RPMI-8226 leukemia it was 41.5 µM; in the assay with RXF 393 renal it was 95.1 µM; with SK-OV-3 ovarian, over 100 µM. For the same compound, the TGI in the assay with SN12C renal, in the assay with SNB-19 CNS and in the assay on UACC-257 melanoma was over 100 µM throughout.

`C=CCN1C(=O)/C(=C/c2ccccc2)N=C1SC1OC(COC(=O)c2ccccc2)C(OC(=O)c2ccccc2)C1OC(=O)c1ccccc1` (configuration not stated): the TGI was over 100 µM with A498 renal; 70.4 µM in the assay on CCRF-CEM leukemia; over 100 µM in the assay on HL-60(TB) leukemia; over 100 µM with HOP-92 NSCLC; over 100 µM with LOX IMVI melanoma; over 100 µM in the assay on MDA-MB-231 breast. For the same compound, the TGI in the assay with NCI-H226 lung was over 100 µM; in the assay with NCI/ADR-RES ovarian it was over 100 µM; in the assay on OVCAR-3 ovarian, over 100 µM; with OVCAR-8 ovarian, over 100 µM; in the assay on PC-3 prostate, over 100 µM; with RPMI-8226 leukemia, 87.9 µM. The TGI in the assay on RXF 393 renal, with SK-OV-3 ovarian and in the assay on UACC-257 melanoma was over 100 µM throughout.

As to `C=C(C(=O)C(=O)Oc1ccc(Cl)cc1)C(=O)c1ccc(C)cc1`, the TGI in the assay with A498 renal is over 100 µM; in the assay on CCRF-CEM leukemia it was over 100 µM; in the assay on HL-60(TB) leukemia it was over 100 µM; with HOP-92 NSCLC, over 100 µM; in the assay with LOX IMVI melanoma, 16.5 µM; in the assay with M14 melanoma, 81.8 µM. In addition, the TGI in the assay on NCI-H226 lung is over 100 µM; in the assay on OVCAR-3 ovarian it was over 100 µM; with OVCAR-8 ovarian, over 100 µM; in the assay on RPMI-8226 leukemia, over 100 µM; in the assay with RXF 393 renal, 79.3 µM; in the assay on SK-OV-3 ovarian, over 100 µM. Further, the TGI in the assay with SN12C renal, in the assay with SNB-19 CNS and in the assay with UACC-257 melanoma was over 100 µM each time.

With `CCOC(=O)c1csc(NC(=O)CCN(CC)CC)n1`, the TGI with A498 renal is over 100 µM; in the assay on CCRF-CEM leukemia, 83.3 µM; in the assay with HL-60(TB) leukemia, over 100 µM; with HOP-92 NSCLC it was 69.3 µM; in the assay on LOX IMVI melanoma it was over 100 µM; with M14 melanoma, 64.1 µM. The TGI in the assay on MDA-MB-231 breast is over 100 µM; with MDA-N, over 100 µM; in the assay on NCI-H226 lung, 89 µM; with NCI/ADR-RES ovarian, over 100 µM; in the assay on OVCAR-3 ovarian it was 69 µM; in the assay on OVCAR-8 ovarian, 95.9 µM. Besides, the TGI in the assay on PC-3 prostate, with RPMI-8226 leukemia, in the assay on RXF 393 renal, in the assay with SK-OV-3 ovarian, with SNB-19 CNS and with T-47D breast was over 100 µM each time. The same compound gave a TGI in the assay on UACC-257 melanoma of over 100 µM.

Take `COC(=O)C1C(C(=O)OC)N(Cc2ccccc2)C(=O)N1Cc1ccccc1` (configuration not stated): the TGI in the assay on CCRF-CEM leukemia, with HL-60(TB) leukemia, in the assay on HOP-92 NSCLC, in the assay with LOX IMVI melanoma, with M14 melanoma and with MDA-N was over 100 µM each time. Further, the TGI in the assay with NCI-H226 lung, in the assay with NCI/ADR-RES ovarian, with OVCAR-3 ovarian, in the assay with OVCAR-8 ovarian, in the assay with PC-3 prostate and in the assay with RPMI-8226 leukemia was over 100 µM throughout. Besides, the TGI in the assay on RXF 393 renal, with SK-OV-3 ovarian, in the assay with SN12C renal, with SNB-19 CNS, with T-47D breast and in the assay on UACC-257 melanoma was over 100 µM throughout.

As to `COCCOCOc1ccc(OCc2ccccc2)cc1`, the TGI with A498 renal was 99.5 µM; in the assay with CCRF-CEM leukemia, over 100 µM; in the assay on HL-60(TB) leukemia it was over 100 µM; with HOP-92 NSCLC, over 100 µM; with LOX IMVI melanoma it was over 100 µM; in the assay with NCI-H226 lung, over 100 µM. Also, the TGI with NCI/ADR-RES ovarian, with OVCAR-3 ovarian, in the assay on OVCAR-8 ovarian, in the assay with RPMI-8226 leukemia, in the assay on RXF 393 renal and in the assay on SK-OV-3 ovarian was over 100 µM throughout. For the same compound, the TGI in the assay on SN12C renal, with SNB-19 CNS and in the assay with UACC-257 melanoma was over 100 µM throughout.

On to `CCN1c2ccccc2-n2c(C)nnc2-c2c1n[nH]c2-c1ccccc1`, for which the TGI with CCRF-CEM leukemia is 55.4 µM; in the assay with HL-60(TB) leukemia it was 28.5 µM; in the assay with HOP-92 NSCLC it was over 100 µM; in the assay with LOX IMVI melanoma, 89.2 µM; in the assay on M14 melanoma, over 100 µM; in the assay with MDA-MB-231 breast, 71.1 µM. The TGI is over 100 µM with MDA-N; 73.1 µM in the assay with NCI/ADR-RES ovarian; over 100 µM with OVCAR-3 ovarian; over 100 µM in the assay with OVCAR-8 ovarian; 96.5 µM with PC-3 prostate; 82.3 µM in the assay with RPMI-8226 leukemia. The TGI is over 100 µM in the assay with RXF 393 renal; over 100 µM in the assay with SK-OV-3 ovarian; 81.6 µM with SN12C renal; over 100 µM with SNB-19 CNS; 74.7 µM in the assay with T-47D breast; over 100 µM in the assay with UACC-257 melanoma.

Consider `CC(C)OP(=O)(OC(C)C)c1c(Nc2ccccc2)n[nH]c1N`, for which the TGI in the assay on A498 renal, with CCRF-CEM leukemia, in the assay with HOP-92 NSCLC, in the assay on LOX IMVI melanoma, in the assay with M14 melanoma and with MDA-MB-231 breast was over 100 µM throughout. Also, the TGI with MDA-N, in the assay with NCI-H226 lung, in the assay on NCI/ADR-RES ovarian, in the assay with OVCAR-3 ovarian, in the assay with OVCAR-8 ovarian and in the assay with PC-3 prostate was over 100 µM in each case. In addition, the TGI in the assay on RPMI-8226 leukemia, in the assay with RXF 393 renal, in the assay on SK-OV-3 ovarian, with SNB-19 CNS, in the assay on T-47D breast and in the assay on UACC-257 melanoma was over 100 µM each time.

For the compound `C/C(CCOC1CCCCO1)=C(\C)[Si](C)(C)C` (configuration not stated), the TGI in the assay on A498 renal, with CCRF-CEM leukemia, in the assay with HL-60(TB) leukemia, with HOP-92 NSCLC, in the assay with LOX IMVI melanoma and with M14 melanoma was over 100 µM throughout. Further, the TGI in the assay on OVCAR-3 ovarian, in the assay on OVCAR-8 ovarian, with RPMI-8226 leukemia, in the assay with SN12C renal, with SNB-19 CNS and in the assay on UACC-257 melanoma was over 100 µM throughout.

Take `C[C@]12CC[C@@H]3c4ccc(O)cc4CC[C@H]3[C@@H]1C/C(=C\c1ccncc1)C2=O`: the TGI with A498 renal is 91.4 µM; with CCRF-CEM leukemia it was over 100 µM; in the assay with HL-60(TB) leukemia, 68 µM; in the assay with HOP-92 NSCLC it was over 100 µM; in the assay on LOX IMVI melanoma, 58.9 µM; in the assay with M14 melanoma it was over 100 µM. The TGI with MDA-MB-231 breast is over 100 µM; with MDA-N, over 100 µM; in the assay on NCI-H226 lung, 68.6 µM; with NCI/ADR-RES ovarian it was 60.1 µM; in the assay with OVCAR-3 ovarian, 50.5 µM; in the assay with OVCAR-8 ovarian, 56.3 µM. The TGI in the assay with PC-3 prostate, with RPMI-8226 leukemia, in the assay on RXF 393 renal, in the assay on SK-OV-3 ovarian, in the assay on SNB-19 CNS and in the assay with T-47D breast was over 100 µM throughout. Besides, in the assay on UACC-257 melanoma, the TGI is over 100 µM.

As to `Oc1ccc(/C=C/c2cc(O)cc(O)c2)cc1`, the TGI with A498 renal, in the assay with HL-60(TB) leukemia, in the assay on HOP-92 NSCLC, in the assay with M14 melanoma, with MDA-MB-231 breast and with MDA-N was over 100 µM throughout. In addition, the TGI in the assay with NCI-H226 lung, in the assay on NCI/ADR-RES ovarian, in the assay with OVCAR-3 ovarian, with OVCAR-8 ovarian, with PC-3 prostate and with RPMI-8226 leukemia was over 100 µM each time. For the same compound, the TGI in the assay on RXF 393 renal, in the assay on SK-OV-3 ovarian, in the assay with SN12C renal, with SNB-19 CNS, in the assay with T-47D breast and with UACC-257 melanoma was over 100 µM throughout.
